Data reported in PubChem BioAssay AID248 (DTP/NCI, 2004).
Inconclusive results and toxic doses are left out. Cut-off read from the data, not from the text of the source: active = T/C of 150% or more; inactive = T/C below 125%.

System: L1210 leukemia ip in BDF1 mice, survival T/C
Assay: NCI In Vivo Anticancer Drug Screen. Data for tumor model L1210 Leukemia (intraperitoneal) in B6D2F1 (BDF1) mice
Conditions: endpoint: mean survival time, higher = longer survival
Outline: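 Antitumor effect is assessed in tumor-bearing animals. Survival in the compound arm is compared with a vehicle-dosed control arm and expressed as their quotient.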

[1] = dose: 100.0 mg/kg/injection, schedule: Q01DX001 (ip), vehicle: saline
[2] = dose: 200.0 mg/kg/injection, schedule: Q01DX001 (ip), vehicle: saline
[3] = dose: 400.0 mg/kg/injection, schedule: Q01DX001 (ip), vehicle: saline
[4] = dose: 100.0 mg/kg/injection, schedule: Q01DX001 (ip), vehicle: Klucel (hydroxypropylcellulose) (HPC)
[5] = dose: 200.0 mg/kg/injection, schedule: Q01DX001 (ip), vehicle: Klucel (hydroxypropylcellulose) (HPC)
[6] = dose: 100.0 mg/kg/injection, schedule: Q04DX003 (ip), vehicle: Klucel (hydroxypropylcellulose) (HPC)
[7] = dose: 100.0 mg/kg/injection, schedule: Q01DX009 (ip), vehicle: Klucel (hydroxypropylcellulose) (HPC)
[8] = dose: 200.0 mg/kg/injection, schedule: Q04DX003 (ip), vehicle: Klucel (hydroxypropylcellulose) (HPC)
[9] = dose: 50.0 mg/kg/injection, schedule: Q01DX009 (ip), vehicle: saline with Tween-80
[10] = dose: 100.0 mg/kg/injection, schedule: Q01DX009 (ip), vehicle: saline with Tween-80
[11] = dose: 100.0 mg/kg/injection, schedule: Q04DX003 (ip), vehicle: saline with Tween-80
[12] = dose: 100.0 mg/kg/injection, schedule: Q04DX002 (ip), vehicle: Klucel (hydroxypropylcellulose) (HPC)
[13] = dose: 200.0 mg/kg/injection, schedule: Q04DX002 (ip), vehicle: Klucel (hydroxypropylcellulose) (HPC)
[14] = dose: 400.0 mg/kg/injection, schedule: Q04DX002 (ip), vehicle: Klucel (hydroxypropylcellulose) (HPC)
[15] = dose: 50.0 mg/kg/injection, schedule: Q04DX003 (ip), vehicle: Klucel (hydroxypropylcellulose) (HPC)
[16] = dose: 200.0 mg/kg/injection, schedule: Q04DX003 (ip), vehicle: saline with Tween-80

Measured: T/C

CCCCN(C)C(=S)S[Te](SC(=S)N(C)CCCC)(SC(=S)N(C)CCCC)SC(=S)N(C)CCCC
inactive: [1] 95 % of control | [2] 90 % of control | [3] 93 % of control | dose: 800.0 mg/kg/injection, schedule: Q01DX001 (ip), vehicle: saline 106 % of control | dose: 1600.0 mg/kg/injection, schedule: Q01DX001 (ip), vehicle: saline 104 % of control

O=C1c2ccccc2C(=O)N1CCCCCCCCCCCCCCN1C(=O)c2ccccc2C1=O
inactive: [4] 94 % of control | [5] 94 % of control

COc1ccc(C2C(=O)c3ccc(OC)c(OC)c3C2=O)cc1OC (configuration not stated)
inactive: [1] 94 % of control | [2] 89 % of control

O=[N+]([O-])c1cc([N+](=O)[O-])c2ccc(S(=O)(=O)O)cc2c1O
inactive: dose: 20.0 mg/kg/injection, schedule: Q01DX009 (ip), vehicle: Klucel (hydroxypropylcellulose) (HPC) 97 % of control | dose: 20.0 mg/kg/injection, schedule: Q04DX003 (ip), vehicle: Klucel (hydroxypropylcellulose) (HPC) 110 % of control | dose: 40.0 mg/kg/injection, schedule: Q01DX009 (ip), vehicle: Klucel (hydroxypropylcellulose) (HPC) 100 % of control | dose: 40.0 mg/kg/injection, schedule: Q04DX003 (ip), vehicle: Klucel (hydroxypropylcellulose) (HPC) 109 % of control | dose: 80.0 mg/kg/injection, schedule: Q01DX009 (ip), vehicle: Klucel (hydroxypropylcellulose) (HPC) 103 % of control | dose: 80.0 mg/kg/injection, schedule: Q04DX003 (ip), vehicle: Klucel (hydroxypropylcellulose) (HPC) 105 % of control | [6] 106 % of control

OC(c1ccc(Cl)cc1)(c1ccc(Cl)cc1)C(F)(F)F
inactive: dose: 100.0 mg/kg/injection, schedule: Q01DX009 (sc), vehicle: olive oil, sesame oil, peanut oil 113 % of control | dose: 100.0 mg/kg/injection, schedule: Q04DX003 (sc), vehicle: olive oil, sesame oil, peanut oil 100 % of control | dose: 200.0 mg/kg/injection, schedule: Q01DX009 (sc), vehicle: olive oil, sesame oil, peanut oil 101 % of control | dose: 200.0 mg/kg/injection, schedule: Q04DX003 (sc), vehicle: olive oil, sesame oil, peanut oil 97 % of control | dose: 400.0 mg/kg/injection, schedule: Q04DX003 (sc), vehicle: olive oil, sesame oil, peanut oil 113 % of control

O=C(Nc1ccccc1F)c1ccccc1
inactive: [7] 97 % of control | [6] 96 % of control | dose: 200.0 mg/kg/injection, schedule: Q01DX009 (ip), vehicle: Klucel (hydroxypropylcellulose) (HPC) 87 % of control | [8] 98 % of control | dose: 400.0 mg/kg/injection, schedule: Q01DX009 (ip), vehicle: Klucel (hydroxypropylcellulose) (HPC) 89 % of control | dose: 400.0 mg/kg/injection, schedule: Q04DX003 (ip), vehicle: Klucel (hydroxypropylcellulose) (HPC) 104 % of control

Cc1c2c(cc3c1OCN(C1CCCCC1)C3)CN(C1CCCCC1)CO2
inactive: [1] 98 % of control | [2] 90 % of control

C1=CC2CC1C1CSCC21 (configuration not stated)
inactive: dose: 0.34 mg/kg/injection, schedule: Q01DX009 (ip), vehicle: saline 102 % of control | dose: 0.51 mg/kg/injection, schedule: Q01DX009 (ip), vehicle: saline 107 % of control | dose: 0.78 mg/kg/injection, schedule: Q01DX009 (ip), vehicle: saline 98 % of control | dose: 1.56 mg/kg/injection, schedule: Q04DX003 (ip), vehicle: saline 97 % of control | dose: 3.12 mg/kg/injection, schedule: Q04DX003 (ip), vehicle: saline 94 % of control

CCCCCCCCCN1C(=O)c2ccccc2S1(=O)=O
inactive: dose: 222.0 mg/kg/injection, schedule: Q01DX Z (ip), vehicle: saline 100 % of control | dose: 333.0 mg/kg/injection, schedule: Q01DX Z (ip), vehicle: saline 97 % of control | dose: 500.0 mg/kg/injection, schedule: Q01DX Z (ip), vehicle: saline 91 % of control

CCCCCCCCCCCCCCC[N+](C)(C)C
inactive: dose: 12.5 mg/kg/injection, schedule: Q01DX009 (ip), vehicle: saline 102 % of control | dose: 25.0 mg/kg/injection, schedule: Q01DX009 (ip), vehicle: saline 93 % of control

O=I(=O)c1ccccc1
inactive: dose: 25.0 mg/kg/injection, schedule: Q01DX009 (ip), vehicle: saline with Tween-80 101 % of control | [9] 103 % of control | [10] 97 % of control | [11] 96 % of control

O=C1OCC/C1=C\NCCCCCCCCN/C=C1\CCOC1=O
inactive: [12] 97 % of control | [13] 108 % of control | [14] 97 % of control

CCOC(=O)C(C)(Cc1c(C)cc(C)c(CC(C)(C(=O)OCC)C(=O)OCC)c1C)C(=O)OCC
inactive: dose: 25.0 mg/kg/injection, schedule: Q01DX009 (ip), vehicle: Klucel (hydroxypropylcellulose) (HPC) 95 % of control | dose: 25.0 mg/kg/injection, schedule: Q04DX003 (ip), vehicle: Klucel (hydroxypropylcellulose) (HPC) 98 % of control | dose: 50.0 mg/kg/injection, schedule: Q01DX009 (ip), vehicle: Klucel (hydroxypropylcellulose) (HPC) 91 % of control | [15] 96 % of control | [7] 96 % of control | [6] 100 % of control

NCCSC12CC3CC(CC(C3)C1)C2
inactive: dose: 100.0 mg/kg/injection, schedule: Q04DX002 (ip), vehicle: saline 90 % of control | dose: 200.0 mg/kg/injection, schedule: Q04DX002 (ip), vehicle: saline 94 % of control | dose: 400.0 mg/kg/injection, schedule: Q04DX002 (ip), vehicle: saline 96 % of control

CCC(OC(=O)Nc1ccc(S(=O)(=O)NC2CCCCC2)cc1)c1ccco1 (configuration not stated)
inactive: [1] 94 % of control | [2] 88 % of control | [3] 91 % of control

c1ccc2c(c1)Cc1c(-c3ccncc3)n[nH]c1-2
inactive: [11] 93 % of control | [16] 96 % of control | dose: 400.0 mg/kg/injection, schedule: Q04DX003 (ip), vehicle: saline with Tween-80 86 % of control

Cn1c(N)c(C(=O)CCCc2ccc(N(CCCl)CCCl)cc2)c(=O)n(C)c1=O
inactive: dose: 50.0 mg/kg/injection, schedule: Q01DX001 (ip), vehicle: carboxymethylcellulose (CMC) 102 % of control | dose: 100.0 mg/kg/injection, schedule: Q01DX001 (ip), vehicle: carboxymethylcellulose (CMC) 107 % of control | dose: 200.0 mg/kg/injection, schedule: Q01DX001 (ip), vehicle: carboxymethylcellulose (CMC) 105 % of control | dose: 400.0 mg/kg/injection, schedule: Q01DX001 (ip), vehicle: carboxymethylcellulose (CMC) 102 % of control

C=CCc1cn(C2OC(COC(=O)c3ccccc3)C(OC(=O)c3ccccc3)C2OC(=O)c2ccccc2)c(=S)[nH]c1=O (configuration not stated)
inactive: dose: 100.0 mg/kg/injection, schedule: Q01DX005 (ip), vehicle: saline 95 % of control | dose: 200.0 mg/kg/injection, schedule: Q01DX005 (ip), vehicle: saline 98 % of control

C=CC(=O)OCC(C)([N+](=O)[O-])[N+](=O)[O-]
inactive: [9] 103 % of control | [10] 97 % of control | [11] 103 % of control | [16] 96 % of control

Brc1ncnc2nc[nH]c12
inactive: dose: 62.5 mg/kg/injection, schedule: Q01DX Z (ip), vehicle: carboxymethylcellulose (CMC) 97 % of control | dose: 75.0 mg/kg/injection, schedule: Q01DX Z (ip), vehicle: carboxymethylcellulose (CMC) 120 % of control | dose: 100.0 mg/kg/injection, schedule: Q01DX Z (ip), vehicle: methylcellulose (MC) 111 % of control | dose: 125.0 mg/kg/injection, schedule: Q01DX Z (ip), vehicle: carboxymethylcellulose (CMC) 121 % of control | dose: 200.0 mg/kg/injection, schedule: Q01DX Z (ip), vehicle: methylcellulose (MC) 120 % of control

COC1(OC)C2CCC1C(OS(=O)(=O)c1ccc(C)cc1)C2 (configuration not stated)
inactive: [12] 103 % of control | [13] 106 % of control | [14] 100 % of control

CCN1C(=S)N(C)C(=O)/C1=C\N(C(C)=O)c1ccccc1
inactive: [15] 103 % of control | [4] 104 % of control | [6] 112 % of control | [5] 104 % of control | [8] 100 % of control | dose: 400.0 mg/kg/injection, schedule: Q01DX001 (ip), vehicle: Klucel (hydroxypropylcellulose) (HPC) 102 % of control

CNC(=O)CCC(NC(=O)c1ccc(N(C)Cc2cnc3nc(N)nc(N)c3n2)cc1)C(=O)O (configuration not stated)
active: dose: 100.0 mg/kg/injection, schedule: Q01DX009 (ip), vehicle: sodium bicarbonate 158 % of control
inactive: dose: 25.0 mg/kg/injection, schedule: Q01DX009 (ip), vehicle: sodium bicarbonate 116 % of control
